This is an account of results in PMC6934184, “Selective DNA-PKcs inhibition extends the therapeutic index of localized radiotherapy and chemotherapy” (The Journal of Clinical Investigation, 2019).

The target of the test is T1, CHEK2 (CHK2) (Homo sapiens, UniProt O96017).
T1 construct: purchased Thermo Fisher Scientific (Life Technologies) SelectScreen
Briefly: SelectScreen Z'LYTE. Type of test: biochemical. In a few lines:
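NU5455 was profiled across the SelectScreen Broad panel of kinase activity and binding assays. Z'LYTE reactions such as CSF1R ran at apparent Km ATP, while the Adapta CAMK1 assay used ATP listed as 10. Values are given as percent.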

T1 sequence (O96017 whole entry): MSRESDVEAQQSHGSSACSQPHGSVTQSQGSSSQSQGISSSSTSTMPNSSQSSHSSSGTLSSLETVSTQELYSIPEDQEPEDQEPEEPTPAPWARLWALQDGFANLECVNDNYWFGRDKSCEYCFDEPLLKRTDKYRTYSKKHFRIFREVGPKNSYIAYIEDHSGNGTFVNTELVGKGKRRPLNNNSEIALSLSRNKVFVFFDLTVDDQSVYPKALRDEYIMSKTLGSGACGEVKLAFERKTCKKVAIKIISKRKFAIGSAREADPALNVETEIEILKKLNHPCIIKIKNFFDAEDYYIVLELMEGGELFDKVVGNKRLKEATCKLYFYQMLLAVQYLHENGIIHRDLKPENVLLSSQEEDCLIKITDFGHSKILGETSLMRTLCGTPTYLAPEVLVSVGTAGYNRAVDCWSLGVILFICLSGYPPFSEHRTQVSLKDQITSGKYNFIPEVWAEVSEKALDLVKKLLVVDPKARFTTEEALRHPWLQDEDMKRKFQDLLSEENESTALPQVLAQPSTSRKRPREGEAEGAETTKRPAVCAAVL

Broadly, the inhibition is the drop in the measured response relative to a control, in per cent. For `CN(C(=O)CN1CCOCC1)c1ccc2sc3c(-c4cccc5c(=O)cc(N6CC7CCC(C6)O7)oc45)cccc3c2c1` [NU5455], the inhibition at 1 µM was -11.7%.
